{
  "source": "PubChem BioAssay AID1963864",
  "about": "(Molecular Pharmacology Branch, DTP, NCI, 2024);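 further: drug exposure lasted seven days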;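 on viability, T/C: 100% = DMSO vehicle wells and lower means fewer viable cells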",
  "tested_on": "KRAS PDC multicell spheroid viability",
  "test": "Anticancer human tumor 521955-158-R6-J3-PDC patient-derived pancreatic carcinoma cell line growth inhibition [KRAS2]",
  "details": "for IC50: curve of first compound; for viability, T/C: stronger effect = lower value",
  "how_it_was_run": "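Combination screen of spheroid viability in tumor-cell co-cultures with endothelial (HUVEC) and mesenchymal stem cell stroma. Each agent was tested in half-log dilutions, topping at clinical Cmax or at 10 microM without a known Cmax.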",
  "data": [
    {"smiles": "CC1OCC2(CCN(c3cnc(Sc4ccnc(N)c4Cl)c(N)n3)CC2)C1N", "note": "(stereo not given) + C=CC(=O)N1CCN(c2nc(OCC3CCCN3C)nc3c2CCN(c2cccc4cccc(C)c24)C3)CC1CC#N", "values": [
      {"measurement": "IC50", "setting": "second compound 0.0316 µM", "result": "> 10", "unit": "µM"},
      {"measurement": "IC50", "setting": "second compound 0.1 µM", "result": "> 10", "unit": "µM"},
      {"measurement": "IC50", "setting": "second compound 0.316 µM", "result": "> 10", "unit": "µM"},
      {"measurement": "IC50", "setting": "second compound 1 µM", "result": "> 10", "unit": "µM"},
      {"measurement": "IC50", "setting": "second compound 3.16 µM", "result": "< 0.0316", "unit": "µM"},
      {"measurement": "viability, T/C", "setting": "second compound 0.0316 µM, first compound 0.0316 µM", "result": 88.4, "unit": "%"},
      {"measurement": "viability, T/C", "setting": "second compound 0.0316 µM, first compound 0.1 µM", "result": 103, "unit": "%"},
      {"measurement": "viability, T/C", "setting": "second compound 0.0316 µM, first compound 0.316 µM", "result": 92.2, "unit": "%"},
      {"measurement": "viability, T/C", "setting": "second compound 0.0316 µM, first compound 1 µM", "result": 96, "unit": "%"},
      {"measurement": "viability, T/C", "setting": "second compound 0.0316 µM, first compound 3.16 µM", "result": 114, "unit": "%"},
      {"measurement": "viability, T/C", "setting": "second compound 0.0316 µM, first compound 10 µM", "result": 109, "unit": "%"},
      {"measurement": "viability, T/C", "setting": "second compound 0.1 µM, first compound 0.0316 µM", "result": 92.7, "unit": "%"},
      {"measurement": "viability, T/C", "setting": "second compound 0.1 µM, first compound 0.1 µM", "result": 97.4, "unit": "%"},
      {"measurement": "viability, T/C", "setting": "second compound 0.1 µM, first compound 0.316 µM", "result": 84.2, "unit": "%"},
      {"measurement": "viability, T/C", "setting": "second compound 0.1 µM, first compound 1 µM", "result": 86.1, "unit": "%"},
      {"measurement": "viability, T/C", "setting": "second compound 0.1 µM, first compound 3.16 µM", "result": 114, "unit": "%"},
      {"measurement": "viability, T/C", "setting": "second compound 0.1 µM, first compound 10 µM", "result": 114, "unit": "%"},
      {"measurement": "viability, T/C", "setting": "second compound 0.316 µM, first compound 0.0316 µM", "result": 87.5, "unit": "%"},
      {"measurement": "viability, T/C", "setting": "second compound 0.316 µM, first compound 0.1 µM", "result": 86.1, "unit": "%"},
      {"measurement": "viability, T/C", "setting": "second compound 0.316 µM, first compound 0.316 µM", "result": 85, "unit": "%"},
      {"measurement": "viability, T/C", "setting": "second compound 0.316 µM, first compound 1 µM", "result": 90.4, "unit": "%"},
      {"measurement": "viability, T/C", "setting": "second compound 0.316 µM, first compound 3.16 µM", "result": 101, "unit": "%"},
      {"measurement": "viability, T/C", "setting": "second compound 0.316 µM, first compound 10 µM", "result": 106, "unit": "%"},
      {"measurement": "viability, T/C", "setting": "second compound 1 µM, first compound 0.0316 µM", "result": 75.7, "unit": "%"},
      {"measurement": "viability, T/C", "setting": "second compound 1 µM, first compound 0.1 µM", "result": 68.7, "unit": "%"},
      {"measurement": "viability, T/C", "setting": "second compound 1 µM, first compound 0.316 µM", "result": 64.9, "unit": "%"},
      {"measurement": "viability, T/C", "setting": "second compound 1 µM, first compound 1 µM", "result": 67.4, "unit": "%"},
      {"measurement": "viability, T/C", "setting": "second compound 1 µM, first compound 3.16 µM", "result": 90.2, "unit": "%"},
      {"measurement": "viability, T/C", "setting": "second compound 1 µM, first compound 10 µM", "result": 113, "unit": "%"},
      {"measurement": "viability, T/C", "setting": "second compound 3.16 µM, first compound 0.0316 µM", "result": 40.8, "unit": "%"},
      {"measurement": "viability, T/C", "setting": "second compound 3.16 µM, first compound 0.1 µM", "result": 32.3, "unit": "%"},
      {"measurement": "viability, T/C", "setting": "second compound 3.16 µM, first compound 0.316 µM", "result": 25.2, "unit": "%"},
      {"measurement": "viability, T/C", "setting": "second compound 3.16 µM, first compound 1 µM", "result": 37.3, "unit": "%"},
      {"measurement": "viability, T/C", "setting": "second compound 3.16 µM, first compound 3.16 µM", "result": 28.9, "unit": "%"},
      {"measurement": "viability, T/C", "setting": "second compound 3.16 µM, first compound 10 µM", "result": 23.7, "unit": "%"}
    ]}
  ]
}
